Experimental data reported in PMC7822874, “Chemoprotective antimalarials identified through quantitative high-throughput screening of Plasmodium blood and liver stage parasites” (Scientific Reports, 2021).
Like-named read-outs stand apart in the source and are kept apart here.

Tests used:
in vitro [1] = conditions: human, hepg2 cells
[2] = test system: Plasmodium falciparum Dd2 asexual blood stage parasites; experiment: microbe, parasite or virus in culture; parameters: species or system Plasmodium falciparum Dd2 in human erythrocytes; single determination (one 11-point concentration-response curve); conditions: Plasmodium falciparum, DD2, Erythrocyte, 72 h; read-out: AC50
in vitro [3] = conditions: human, HepG2-A16-CD81EGFP cells, uninfected
[4] = test system: P. berghei-ANKA-GFP-LucCON liver stage parasites in HepG2-A16-CD81EGFP cells; experiment: P. berghei liver stage Pb-Luc assay, Method 1 (UCSD, 1536-well); format: cell-based, Plasmodium berghei; conditions: P. berghei liver stage, averaged response (percent); for Average P. berghei 1 µM response (%): the header list (r8) defines it as the 1 µM dose
HepG2-A16-CD81EGFP cells = conditions: averaged response (percent)
[5] = test system: P. falciparum Dd2 (clone B2) asexual blood stage parasites; experiment: P. falciparum Dd2 asexual blood stage SYBR Green-I 72 h proliferation assay (qHTS); format: cell-based, Plasmodium falciparum; conditions: for Pf ABS Log AC50 (M): averaged P. falciparum asexual blood stage potency, log10 of AC50 in M
in vitro [6] = conditions: human, hepg2-a16-cd81egfp cells, % viability
[7] = test system: P. falciparum Dd2 Cytb G131S; experiment: SYBR Green ABS proliferation assay, NCGC00374598 selected clone C11; format: cell-based, Plasmodium falciparum; conditions: Plasmodium falciparum, DD2, […]; averaged from three independent replicates; top concentration 29 µM; read-out: Average AC50 (Log[M]), NCGC00374598 clone C11 (Cytb G131S) (converted)
Description: As resistance selection studies implicated the parasite cytochrome bc1 complex in mediating reduced parasite susceptibility to both NCGC00473217 and NCGC00374598, we leveraged these drug-selected parasites to test for altered drug response to a panel of antimalarial compounds.
The P. falciparum parasite Dd2 line was cultured in vitro using standard conditions. […] Tissue culture flasks and assay plates were incubated at 37 °C under a gas mixture of 5% CO2, 5% O2 and 90% N2. […] Significant differences were assessed using two-sided Student’s t-tests. All HTS assays were stopped and read at 72 h. Percent response values represent relative growth as judged by SYBR Green-I fluorescence intensity values normalized to controls.
Fresh uninfected RBCs (0.5% hematocrit) were added on day 7 and media was changed every other day. […] Resistant parasites were maintained under drug media at a volume of 50 mL until a high parasitemia (> 5%) was achieved. Aliquots of the bulk resistant cultures were frozen in cryovials before cloning by limiting dilution in 96-well plates (seeded at 0.25 or 0.5 parasites/well)[70]. After 3 weeks of cloning, we screened for positive wells by flow cytometry with SYBR Green-stained cells. […] Parasites were harvested by saponin lysis at the trophozoite stage and genomic DNA was extracted using the QIAamp DNA Blood Midi Kit (Qiagen, Germantown, MD)[71].

[8] = HepG2, the header list (r10) describes it as the 1 µM dose

Row | Structure (SMILES) | CC50 at 48 h (in vitro [1]) | AC50 [2] | Average P. berghei 3 µM response( %) [4] | Average HepG2 3 µM response( %) (HepG2-A16-CD81EGFP cells; HepG2, 3 µM dose) | Average HepG2 3 µM response( %) (HepG2-A16-CD81EGFP cells; [8]) | Pf ABS Log AC50 (M) [5] | viability at 3 µM (in vitro [6]) | also measured
1 | Cc1cc(N2CCC(N(C)C3CCCC3)CC2)nc2cc(O)ccc12 [MLS000118330-01] | > 57 µM | 5.96 µM |  |  |  |  |  | 
2 | CCCn1c2c(c(=N)c3c1CCC3)CCC2 [MLS001047442-01] | > 57 µM | 13.3 µM |  |  |  |  |  | viability at 48 h (in vitro [3]): 99.2%; viability at 48 h, 1 µM (in vitro [3]): 99.2%
3 | COc1ccc(C2c3[nH]c4ccccc4c3C[C@H]3C(=O)N(C4CCN(Cc5ccccc5)CC4)CC(=O)N23)cc1OC (stereo partly shown) [MLS001215281] |  |  | 73% | 90% | 101% | -5.612 M | 90.3% | Average P. berghei 1 µM response (%) [4]: 94%
4 | N[S+](=O)([O-])c1cc2c(cc1Cl)N=CN[S+]2(=O)[O-] [NCGC00015242-14] |  |  |  |  |  |  |  | AC50 [7]: 7.1e-07 M; AC50 ([5]; Plasmodium falciparum, DD2, Dd2 parental, Hill fit, averaged from three independent replicates, top concentration 29 µM, read-out: Average AC50 (Log[M]), Dd2 (converted)): 2e-06 M
5 | CCc1ccccc1OC[C@@H](O)CN[C@@H]1CCCc2ccccc21 [NCGC00025196] |  |  | 77% | 92% | 95% | -5.800 M | 91.7% | Average P. berghei 1 µM response (%) [4]: 73%
6 | Cc1ccc(O)c(-c2cc(C(=O)Nc3ccc([S+](=O)([O-])N4CC(C)OC(C)C4)cc3)n[nH]2)c1 (stereo not shown) [NCGC00071593] |  |  | 65% | 97% | 100% | -6.150 M | 97% | Average P. berghei 1 µM response (%) [4]: 89%
7 | CCN1CCN(c2cc(C)c3cc(NC(=O)c4cccc(Cl)c4)ccc3n2)CC1 [NCGC00103820-01] | > 57 µM | 4.73 µM |  |  |  |  |  | 
8 | CC(C)N(Cc1ccccc1)C(=O)CN1C(=O)COc2ccc([S+](=O)([O-])N3CCCCCC3)cc21 [NCGC00123222] |  |  | 127% | 94% | 99% | -6.100 M | 93.6% | Average P. berghei 1 µM response (%) [4]: 105%
9 | CN(C(Cc1ccc(O[S+](=O)([O-])c2cccc3cnccc23)cc1)C(=O)N1CCN(c2ccccc2)CC1)[S+](=O)([O-])c1cccc2cnccc12 (stereo not shown) [NCGC00163381] |  |  | 77% | 79% | 87% | -6.300 M | 79.2% | 
10 | COc1ccc(CN2C[C@@H](F)[C@@H](OCc3nc4cc(C)ccc4[nH]3)C2)cc1 [NCGC00393009-01] | > 57 µM |  |  |  |  |  |  | 
11 | COCCNc1ncccc1-c1noc([C@@H]2CCCN2Cc2ccccn2)n1 [NCGC00394837-01] | > 57 µM | 7.69 µM |  |  |  |  |  | 
12 | COCC(=O)N[C@H]1C[C@@H](Cc2cc(-c3ccc(OC)cc3)on2)C1(C)C [NCGC00395450-01] | > 57 µM |  |  |  |  |  |  | 
13 | CN(C)c1ccc2ncc(Nc3ccc(Oc4ccccc4)cc3)n2n1 [NCGC00412534-01] | > 57 µM | 8.63 µM |  |  |  |  |  | 
14 | O=C(Nc1ccc(Cl)cc1)c1nc2c(o1)CCN(Cc1ccc(F)cc1F)CC2 [NCGC00413332-01] | > 57 µM |  |  |  |  |  |  | 
